Assays:
[1] = system: Human umbilical vein endothelial cells (HUVEC); test: Measurement of cell migration (CytoSelect 24-well Cell Migration Assay); format: cell-based; conditions: examined in the same manner as in Example 1
Procedure: Measurement of cell migration was carried out in the following manner using CytoSelect 24-well Cell Migration Assay (CBA-100, Cell Biolabs) kits. First, sample solutions were prepared by dissolving 2-Cl—C.OXT-A in physiological saline so as to achieve predetermined concentrations (0.1, 0.5, 1 mmol/l). Then, the sample solutions containing 2-Cl—C.OXT-A at the predetermined concentrations respectively were added to HuMedia-EB2 media (Kurabo) to which 2 v/v % inactivated fetal bovine serum (FBS) had been added so that their concentrations became 10 v/v %. Thus, cell migration media were prepared. The final concentrations of 2-Cl—C.OXT-A in the cell migration media were 10, 50, and 100 μmol/l.
Human umbilical vein endothelial cells (HUVEC) were suspended in a HuMedia-EB2 medium (Kurabo) to which 2 v/v % inactivated fetal bovine serum (FBS) had been added at a density of 0.5×10^6 cells/ml. Thus, a cell suspension was prepared. 300 μl of the cell suspension was added to an upper compartment (i.e., in an insert) of a polycarbonate membrane plate provided in the kit, and 500 μl of the cell migration medium was added to a lower compartment (i.e., in a well) of the plate. Then, the cells were cultured at 37° C. for 24 hours. After the completion of the culture, the membrane on the inner bottom face of the insert was wiped out with a cotton swab to remove the cells on the membrane. Then, cells having migrated to the rear face of the membrane (the membrane on the outer bottom face of the insert) were stained using a staining solution provided in the kit, and then photographed from below the insert. After the photographing, the dye was extracted with an extracting solution provided in the kit, and the absorbance at 560 nm was measured using a microplate reader. As a control, a HuMedia-EB2 medium (Kurabo) to which 2 v/v % inactivated fetal bovine serum (FBS) had been added was used instead of the cell migration medium to carry out the culture, and the cells were stained and the absorbance was measured in the same manner as in the above. Then, using the above equation (I), the relative absorbance in the culture using each of the cell migration media containing 2-Cl—C.OXT-A at the predetermined concentrations was calculated.

[2] = system: human umbilical vein endothelial cells (HUVEC) and normal human dermal fibroblasts; test: Measurement of lumen formation (angiogenesis kit, CD31 immunostaining, lumen area); format: cell-based
Procedure: The measurement of lumen formation was carried out in the following manner using commercially available angiogenesis kits (Kurabo), each including human umbilical vein endothelial cells (HUVEC) and normal human dermal fibroblasts. First, sample solutions were prepared by dissolving 2-Cl—C.OXT-A in physiological saline so as to achieve predetermined concentrations (1, 10, 100, 500 μmol/l, 1, 5, 10, 50 mmol/l). Then, the sample solutions containing 2-Cl—C.OXT-A at the predetermined concentrations respectively were added to media provided in the kits so that their concentrations became 10 v/v %. Thus, lumen formation media were prepared. The final concentrations of 2-Cl—C.OXT-A in the lumen formation media were 0.1, 1, 10, 50, 100, 500 μmol/l, 1 and 5 mmol/1.
Using each of the lumen formation media, the human umbilical vein endothelial cells (HUVEC) and the normal human dermal fibroblasts were cultured for 10 days. After the culture, the human umbilical vein endothelial cells (HUVEC) were immunostained using a lumen staining kit (for CD31 staining, Kurabo). Then, using NIH Image (image processing and analysis software), the area of a portion stained by the immunostaining (lumen area) was measured. As a control, a medium provided in the kit was used instead of the lumen formation medium to carry out the culture, and the cells were immunostained and the lumen area was measured in the same manner as in the above. Then, using the following equation (II), the relative value of lumen area in the culture using each of the lumen formation media containing 2-Cl—C.OXT-A at the predetermined concentrations was calculated.
In the present example, the relative value of lumen area was calculated in the same manner as in the lumen formation measurement in Example 1, except that the measurement was carried out with respect to four groups respectively using media Nos. 5 to 8 prepared by adding 2-Cl—C.OXT-A and PD98059 to media provided in the above-described angiogenesis kits (Kurabo) so that their concentrations became as shown in Table 2 below. In the group using the medium No. 7, the culture was conducted using the medium No. 7 from the first to third days of the culture and the medium No. 5 from the fourth to tenth days of the culture, and in the group using the medium No. 8, the culture was conducted using the medium No. 8 from the first to third days of the culture and the medium No. 6 from the fourth to tenth days of the culture.
In the present example, the relative value of lumen area was calculated in the same manner as in the lumen formation measurement in Example 1, except that the measurement was carried out with respect to six groups respectively using media Nos. 15 to 20 prepared by adding 2-Cl—C.OXT-A, VEGF (positive control), and SU5416 to media provided in the above-described angiogenesis kit (Kurabo) so that their concentrations became as shown in Table 4 below. In the group using the medium No. 16, the culture was conducted using the medium No. 16 from the first to third days of the culture and the medium No. 15 from the fourth to tenth days of the culture; in the group using the medium No. 18, the culture was conducted using the medium No. 18 from the first to third days of the culture and the medium No. 17 from the fourth to tenth days of the culture; and in the group using the medium No. 20, the culture was conducted using the medium No. 20 from the first to third days of the culture and the medium No. 19 from the fourth to tenth days of the culture.

[3] = system: Human umbilical vein endothelial cells (HUVEC); test: Measurement of cell proliferation (Cell Counting Kit-8); format: cell-based; conditions: examined in the same manner as in Example 1
Procedure: Sample solutions were prepared by dissolving 2-Cl—C.OXT-A in physiological saline so as to achieve predetermined concentrations (0.5, 1, 5, 10, 50, 100 mmol/l). Then, the sample solutions containing 2-Cl—C.OXT-A at the predetermined concentrations respectively were added to HuMedia-EB2 media (Kurabo) to which 2 v/v % inactivated fetal bovine serum (FBS) had been added so that their concentrations became 10 v/v %. Thus, cell proliferation media were prepared. The final concentrations of 2-Cl—C.OXT-A in the cell proliferation media were 50, 100, 500 μmol/l, 1, 5, and 10 mmol/1.
Human umbilical vein endothelial cells (HUVEC) suspended in a HuMedia-EG2 medium (Kurabo) were inoculated into each of gelatin-coated wells of a 96-well plate at a density of 3×10^3 cells per well, and cultured for 24 hours. 24 hours after the start of the culture, the medium was removed, and 100 μl of the cell proliferation medium was added to each well. The cells were cultured for another 48 hours. After the completion of the culture, a color reaction was caused using a Cell Counting Kit-8 (Dojindo Laboratories). 2 hours after the start of the reaction, the absorbance at 450 nm was measured using a microplate reader. As a control, a HuMedia-EB2 medium (Kurabo) to which 2 v/v % inactivated fetal bovine serum (FBS) had been added was used instead of the cell proliferation medium to carry out the culture, and a color reaction was caused and the absorbance was measured in the same manner as in the above. Then, using the following equation (I), the relative absorbance in the culture using each of the cell proliferation media containing 2-Cl—C.OXT-A at the predetermined concentrations was calculated.

ERK = ERK activation (phosphorylation) immunoblot in HUVEC; format: cell-based, human
[4] = system: rat adrenal medulla-derived cell line PC12; test: Differentiation of PC12 cells, morphological change (micrographs); format: cell-based; conditions: medium containing NGF (positive control); sixth day of culture
Procedure: In the present example, using rat adrenal medulla-derived cell line PC12, which is neurocyte model cells, obtained from the RIKEN BioResource Center, the effect of 2-Cl—C.OXT-A of Example 1 on the differentiation of PC12 cells was examined.
(§1) Three samples were prepared by adding additives shown in Table 5 below to PBS so as to achieve predetermined concentrations. Also, an evaluation medium was prepared by adding each sample or PBS to DMEM (no serum) so that its concentration became 10 v/v %. Furthermore, as a control medium, a medium containing only DMEM (no serum) was prepared. […] On the sixth day of the culture, the cells were photographed under a microscope, and the AChE activity was measured according to the Ellman's method (Ellman, G. L., et al., Biochem. Pharmacol., 7, pp. 88-95, (1961)). Specifically, the AChE activity was measured in the following manner. […] The sample solution, 75 μl of 10 mmol/l DTNB, and 3.0 ml of 0.1 mol/l phosphate buffer solution (pH 8.0) were added to a […] for absorbance measurement, and finally, 50 μl of 100 mmol/l acetylthiocholine was added to cause a reaction. The absorbance of the reaction solution at 412 nm was measured for 5 minutes from immediately after the addition of the ace tylthiocholine. From the thus-measured absorbances, the amount of increase in absorbance (C) per minute was determined. […]

[5] = system: rat adrenal medulla-derived cell line PC12; test: Differentiation of PC12 cells, AChE activity (Ellman's method); format: cell-based; conditions: NGF (positive control), sixth day of culture
Procedure: as §1, with “prepared. The PC12 cells were suspended at a density of 5×10^4 cells/ml in DMEM to which 5 v/v % cow serum and 10 v/v % horse serum had been added. Thus, a cell suspension was prepared. 3 ml of the cell suspension was inoculated into a 6 petri dish.” for “prepared.”

In the case of CSc1nc(N)c2ncn(C3CC(CO)C3CO)c2n1 (stereo not drawn) [2-SMe—C.OXT-A, 6-amino-2-thiomethoxy-9-[trans-trans-2,3-bis (hydroxymethyl)cyclobutyl]purine], the “cell migration promoting-activity for vascular endothelial cells” value [1] is reported as “exhibited”, the “lumen formation promoting-activity for vascular endothelial cells” value ([2]; examined in the same manner as in Example 1) is reported as “exhibited” and the melting point is reported as 209.4 to 211 °C. The “cell proliferation promoting-activity for vascular endothelial cells” value [3] was “exhibited”.
In the case of Cc1cc(C)c(/C=C2\C(=O)Nc3ccccc32)[nH]1 [SU5416, reference compound], the “increase in pERK” value (ERK; Example 8, medium No. 10: only SU5416 100 nmol/l) is reported as “not observed”, the “ERK activation by 2-Cl—C.OXT-A in the presence of SU5416” value (ERK; Example 8, medium No. 12: 2-Cl—C.OXT-A 100 μmol/l + SU5416 100 nmol/l) is reported as “not inhibited” and the “increase in pERK by VEGF in the presence of SU5416” value (ERK; Example 8, medium No. 14: VEGF 10 ng/ml + SU5416 100 nmol/l) is reported as “suppressed”. For the same molecule, the lumen formation ([2]; Example 9, medium No. 16: only SU5416 2.5 μmol/l, versus medium No. 15 (control)) was “decreased”, the “lumen formation promotion by 2-Cl—C.OXT-A in the presence of SU5416” value ([2]; Example 9, medium No. 18: 2-Cl—C.OXT-A 10 μmol/l + SU5416 2.5 μmol/l, lumen area increased, rate lower than medium No. 17) was “not inhibited” and the lumen area ([2]; Example 9, medium No. 20: VEGF 10 ng/ml + SU5416 2.5 μmol/l) was “decreased”.
In the case of “NGF: nerve growth factor, positive control”, the “morphological change of PC12 cells (axon extension)” value [4] is reported as “cells from which linear axons extend were observed” and the “AChE enzyme activity (relative value)” value [5] is reported as “increased”.
In the case of VEGF, the pERK (ERK; Example 8, medium No. 13: VEGF 10 ng/ml) is reported as “increased” and the lumen area ([2]; Example 9, medium No. 19: VEGF 10 ng/ml) is reported as “increased”.

Source: US20110230659A1, “CYCLOBUTYL PURINE DERIVATIVE, ANGIOGENESIS PROMOTING AGENT, LUMEN FORMATION PROMOTING AGENT, NEUROCYTE GROWTH PROMOTING AGENT, AND DRUG” (NATIONAL UNIVERSITY CORPORATION KAGAWA UNIVERSITY, priority 2008, published 2011)
